Assays:
[1] = tested on: MCF10A wild type (WT) and PTEN knockout (PT−/−) cells; test: crystal violet cell growth, 96 hours after treatment; assay type: cell-based
Method: MCF10A wild type (WT) and PTEN knockout (PT−/−) cells were seeded into 48-well plate with density of 4000 cells/well. The next day, the growth medium was changed to a medium containing Tacrolimus. Medium containing 0.1% DMSO was used as negative control. Ninety-six (96) hours after treatment, the cells were stained with crystal violet for cell growth. The cell growth of negative control group is set as 100%.
The next day, the growth medium was changed to a medium containing CsA (FIG. 9A) or an analog as depicted in each panel in FIG. 9B-D. Medium containing 0.1% DMSO was used as negative control. Ninety-six (96) hours after treatment, the cells were stained with crystal violet for cell growth. The cell growth of negative control group is set as 100%.
Medium containing 0.1% DMSO was used as negative control. Ninety-six (96) hours after treatment, the cells were stained with crystal violet and measured for cell growth. Cell growth of the negative control group is set as 100%.
MCF10A wild type (WT) and PTEN knockout (PT−/−) cells were seeded into 48-well plate with density of 4000 cells/well. The next day, the growth medium was changed to medium containing a compound, CsA or its analogs of Formula III-VIII. Medium containing 0.1% DMSO, was used as a negative control. Ninety six (96) hours after treatment, the cells were stained with crystal violet for cell growth. The cell growth of negative control group was set as 100%.
MCF10A wild type (WT) and PTEN knockout (PT−/−) cells were seeded into 48-well plates at a density of 4000 cells/well. […] Medium containing 0.1% DMSO was used as negative control. Ninety-six (96) hours after treatment, the cells were stained with crystal violet and measured for cell growth. Cell growth of the negative control group was set as 100% (FIG. 10A).

MDA-MB-468 cells (PT−/−) = test: crystal violet cell growth, seven days after treatment; assay type: cell-based; details: MDA-MB-468, seven days; FIG. 10B
Method: (§1) The next day, the growth medium was changed to medium containing CsA and NIM-811. Medium containing 0.1% DMSO was used as negative control. The medium was replenished once. Seven days after treatment, the cells were stained with crystal violet and measured for cell growth. Cell growth of the negative control group is set as 100%.
as §1, with “MDA-MB-468 cells (PT−/−) were seeded into 48-well plates at a density of 5000 cells/well. The next” for “The next”, “set as 100% (FIG. 10B).” for “set as 100%.”

## C/C=C/C[C@@H](C)[C@@H](O)[C@H]1C(=O)N[C@@H](CC)C(=O)N(C)CC(=O)N(C)[C@@H]([C@@H](C)CC)C(=O)N[C@@H](C(C)C)C(=O)N(C)[C@@H](CC(C)C)C(=O)N[C@@H](C)C(=O)N[C@H](C)C(=O)N(C)[C@@H](CC(C)C)C(=O)N(C)[C@@H](CC(C)C)C(=O)N(C)[C@@H](C(C)C)C(=O)N1C [NIM-811]
[1]; 96 hours, FIG. 10A
  differential inhibition of PT−/− MCF10A cells vs. isogenic wild type cells, compared to CsA: increased activity compared to CsA
MDA-MB-468 cells (PT−/−)
  cell growth inhibition activity compared to CsA: better cell growth inhibition activity compared to CsA

## C=CC[C@@H]1/C=C(\C)C[C@H](C)C[C@H](OC)[C@H]2O[C@@](O)(C(=O)C(=O)N3CCCC[C@H]3C(=O)O[C@H](/C(C)=C/[C@@H]3CC[C@@H](O)[C@H](OC)C3)[C@H](C)[C@@H](O)CC1=O)[C@H](C)C[C@@H]2OC [tacrolimus]
[1]; MCF10A WT vs PT−/−, FIG. 8
  preferential killing of PTEN null cells: does not preferentially kill PTEN null cells
[1]; physiologic dosing, FIG. 8
  inhibition of cancer cells: does not inhibit cancer cells at physiologic dosing
